According to ChEMBL document CHEMBL1132901, “Synthesis and structure-activity relationships of quaternary ammonium cephalosporins with 3-pyrazolylpyridinium derivatives” (2000):
Converted amounts (≈) assume the structure as drawn.

system: Escherichia coli; test: In vitro antimicrobial activity against Escherichia coli TEM; format: functional; settings: not given

Going from `CO/N=C(/C(=O)N[C@@H]1C(=O)N2C(C(=O)[O-])=C(C[n+]3cccc(-c4cc(N)[nH]n4)c3)CS[C@H]12)c1csc(N)n1` to `CO/N=C(/C(=O)N[C@@H]1C(=O)N2C(C(=O)[O-])=C(C[n+]3cccc(-c4cc(C(N)=O)nn4CCO)c3)CS[C@H]12)c1csc(N)n1`, the MIC rises from 0.049 µg/mL (≈ 0.0882 µM) to 0.391 µg/mL (≈ 0.623 µM) (8-fold).

system: Pseudomonas aeruginosa; test: In vitro antimicrobial activity against Pseudomonas aeruginosa 1592 E; format: functional; settings: not given

First: CO/N=C(/C(=O)N[C@@H]1C(=O)N2C(C(=O)[O-])=C(C[n+]3cccc(-c4cc(N)[nH]n4)c3)CS[C@H]12)c1csc(N)n1
Second: CO/N=C(/C(=O)N[C@@H]1C(=O)N2C(C(=O)[O-])=C(C[n+]3cccc(-c4cc(C(N)=O)nn4CCO)c3)CS[C@H]12)c1csc(N)n1
The MIC of the first is 8-fold lower: 1.56 µg/mL (≈ 2.81 µM) for the first, 12.5 µg/mL (≈ 19.9 µM) for the second.

system: Enterobacter cloacae; test: In vitro antimicrobial activity against Enterobacter cloacae P99; format: functional; settings: not given

`CO/N=C(/C(=O)N[C@@H]1C(=O)N2C(C(=O)[O-])=C(C[n+]3cccc(-c4cc(N)[nH]n4)c3)CS[C@H]12)c1csc(N)n1` and `CO/N=C(/C(=O)N[C@@H]1C(=O)N2C(C(=O)[O-])=C(C[n+]3cccc(-c4cc(C(N)=O)nn4CCO)c3)CS[C@H]12)c1csc(N)n1` are the same in MIC: 50 µg/mL (≈ 90 µM) for the first, 50 µg/mL (≈ 79.7 µM) for the second.

system: Staphylococcus aureus; test: In vitro antimicrobial activity against Methicillin resistant Staphylococcus aureus (MRSA); format: functional; settings: not given

`CO/N=C(/C(=O)N[C@@H]1C(=O)N2C(C(=O)[O-])=C(C[n+]3cccc(-c4cc(N)[nH]n4)c3)CS[C@H]12)c1csc(N)n1` and `CO/N=C(/C(=O)N[C@@H]1C(=O)N2C(C(=O)[O-])=C(C[n+]3cccc(-c4cc(C(N)=O)nn4CCO)c3)CS[C@H]12)c1csc(N)n1` are the same in MIC: 25 µg/mL (≈ 45 µM) for the first, 25 µg/mL (≈ 39.8 µM) for the second.

system: Pseudomonas aeruginosa; test: In vitro antimicrobial activity against Pseudomonas aeruginosa 9027; format: functional; settings: not given

Compared with `CO/N=C(/C(=O)N[C@@H]1C(=O)N2C(C(=O)[O-])=C(C[n+]3cccc(-c4cc(N)[nH]n4)c3)CS[C@H]12)c1csc(N)n1`, `CO/N=C(/C(=O)N[C@@H]1C(=O)N2C(C(=O)[O-])=C(C[n+]3cccc(-c4cc(C(N)=O)nn4CCO)c3)CS[C@H]12)c1csc(N)n1` is 8-fold higher in MIC: 3.12 µg/mL (≈ 5.62 µM) for the first, 25 µg/mL (≈ 39.8 µM) for the second.

system: Pseudomonas aeruginosa; test: In vitro antimicrobial activity against Pseudomonas aeruginosa 1771; format: functional; settings: not given

First: CO/N=C(/C(=O)N[C@@H]1C(=O)N2C(C(=O)[O-])=C(C[n+]3cccc(-c4cc(N)[nH]n4)c3)CS[C@H]12)c1csc(N)n1
Second: CO/N=C(/C(=O)N[C@@H]1C(=O)N2C(C(=O)[O-])=C(C[n+]3cccc(-c4cc(C(N)=O)nn4CCO)c3)CS[C@H]12)c1csc(N)n1
The MIC of the first is 4-fold lower: 0.781 µg/mL (≈ 1.41 µM) for the first, 3.12 µg/mL (≈ 4.98 µM) for the second.

system: Staphylococcus aureus; test: In vitro antimicrobial activity against Staphylococcus aureus 503; format: functional; settings: not given

Going from `CO/N=C(/C(=O)N[C@@H]1C(=O)N2C(C(=O)[O-])=C(C[n+]3cccc(-c4cc(N)[nH]n4)c3)CS[C@H]12)c1csc(N)n1` to `CO/N=C(/C(=O)N[C@@H]1C(=O)N2C(C(=O)[O-])=C(C[n+]3cccc(-c4cc(C(N)=O)nn4CCO)c3)CS[C@H]12)c1csc(N)n1`, the MIC rises from 0.195 µg/mL (≈ 0.351 µM) to 0.781 µg/mL (≈ 1.24 µM) (4-fold).

system: Pseudomonas aeruginosa; test: In vitro antimicrobial activity against Pseudomonas aeruginosa 1771 M; format: functional; settings: not given

Going from `CO/N=C(/C(=O)N[C@@H]1C(=O)N2C(C(=O)[O-])=C(C[n+]3cccc(-c4cc(N)[nH]n4)c3)CS[C@H]12)c1csc(N)n1` to `CO/N=C(/C(=O)N[C@@H]1C(=O)N2C(C(=O)[O-])=C(C[n+]3cccc(-c4cc(C(N)=O)nn4CCO)c3)CS[C@H]12)c1csc(N)n1`, the MIC rises from 0.195 µg/mL (≈ 0.351 µM) to 0.781 µg/mL (≈ 1.24 µM) (4-fold).

system: Streptococcus pyogenes; test: In vitro antimicrobial activity against Streptococcus pyogenes 77A; format: functional; settings: not given

Going from `CO/N=C(/C(=O)N[C@@H]1C(=O)N2C(C(=O)[O-])=C(C[n+]3cccc(-c4cc(N)[nH]n4)c3)CS[C@H]12)c1csc(N)n1` to `CO/N=C(/C(=O)N[C@@H]1C(=O)N2C(C(=O)[O-])=C(C[n+]3cccc(-c4cc(C(N)=O)nn4CCO)c3)CS[C@H]12)c1csc(N)n1`, the MIC rises from 0.007 µg/mL (≈ 0.0126 µM) to 0.025 µg/mL (≈ 0.0398 µM) (3.6-fold).

system: Staphylococcus aureus; test: In vitro antimicrobial activity against Staphylococcus aureus 285; format: functional; settings: not given

Going from `CO/N=C(/C(=O)N[C@@H]1C(=O)N2C(C(=O)[O-])=C(C[n+]3cccc(-c4cc(N)[nH]n4)c3)CS[C@H]12)c1csc(N)n1` to `CO/N=C(/C(=O)N[C@@H]1C(=O)N2C(C(=O)[O-])=C(C[n+]3cccc(-c4cc(C(N)=O)nn4CCO)c3)CS[C@H]12)c1csc(N)n1`, the MIC rises from 0.781 µg/mL (≈ 1.41 µM) to 3.12 µg/mL (≈ 4.98 µM) (4-fold).

system: Streptococcus pyogenes; test: In vitro antimicrobial activity against Streptococcus pyogenes A 308; format: functional; settings: not given

Going from `CO/N=C(/C(=O)N[C@@H]1C(=O)N2C(C(=O)[O-])=C(C[n+]3cccc(-c4cc(N)[nH]n4)c3)CS[C@H]12)c1csc(N)n1` to `CO/N=C(/C(=O)N[C@@H]1C(=O)N2C(C(=O)[O-])=C(C[n+]3cccc(-c4cc(C(N)=O)nn4CCO)c3)CS[C@H]12)c1csc(N)n1`, the MIC rises from 0.007 µg/mL (≈ 0.0126 µM) to 0.049 µg/mL (≈ 0.0781 µM) (7-fold).

system: Escherichia coli; test: In vitro antimicrobial activity against Escherichia coli DC 0; format: functional; settings: not given

Going from `CO/N=C(/C(=O)N[C@@H]1C(=O)N2C(C(=O)[O-])=C(C[n+]3cccc(-c4cc(N)[nH]n4)c3)CS[C@H]12)c1csc(N)n1` to `CO/N=C(/C(=O)N[C@@H]1C(=O)N2C(C(=O)[O-])=C(C[n+]3cccc(-c4cc(C(N)=O)nn4CCO)c3)CS[C@H]12)c1csc(N)n1`, the MIC rises from 0.025 µg/mL (≈ 0.045 µM) to 0.098 µg/mL (≈ 0.156 µM) (3.9-fold).

system: Escherichia coli; test: In vitro antimicrobial activity against Escherichia coli 1507E; format: functional; settings: not given

Compared with `CO/N=C(/C(=O)N[C@@H]1C(=O)N2C(C(=O)[O-])=C(C[n+]3cccc(-c4cc(N)[nH]n4)c3)CS[C@H]12)c1csc(N)n1`, `CO/N=C(/C(=O)N[C@@H]1C(=O)N2C(C(=O)[O-])=C(C[n+]3cccc(-c4cc(C(N)=O)nn4CCO)c3)CS[C@H]12)c1csc(N)n1` is 7.8-fold higher in MIC: 0.025 µg/mL (≈ 0.045 µM) for the first, 0.195 µg/mL (≈ 0.311 µM) for the second.

system: Escherichia coli; test: In vitro antimicrobial activity against Escherichia coli DC 2; format: functional; settings: not given

Compared with `CO/N=C(/C(=O)N[C@@H]1C(=O)N2C(C(=O)[O-])=C(C[n+]3cccc(-c4cc(N)[nH]n4)c3)CS[C@H]12)c1csc(N)n1`, `CO/N=C(/C(=O)N[C@@H]1C(=O)N2C(C(=O)[O-])=C(C[n+]3cccc(-c4cc(C(N)=O)nn4CCO)c3)CS[C@H]12)c1csc(N)n1` is 7.5-fold higher in MIC: 0.013 µg/mL (≈ 0.0234 µM) for the first, 0.098 µg/mL (≈ 0.156 µM) for the second.

system: Escherichia coli; test: In vitro antimicrobial activity against Escherichia coli 055; format: functional; settings: not given

Compared with `CO/N=C(/C(=O)N[C@@H]1C(=O)N2C(C(=O)[O-])=C(C[n+]3cccc(-c4cc(N)[nH]n4)c3)CS[C@H]12)c1csc(N)n1`, `CO/N=C(/C(=O)N[C@@H]1C(=O)N2C(C(=O)[O-])=C(C[n+]3cccc(-c4cc(C(N)=O)nn4CCO)c3)CS[C@H]12)c1csc(N)n1` is 7.5-fold higher in MIC: 0.013 µg/mL (≈ 0.0234 µM) for the first, 0.098 µg/mL (≈ 0.156 µM) for the second.

system: Klebsiella aerogenes; test: In vitro antimicrobial activity against Klebsiella aerogenes 1522 E; format: functional; settings: not given

First: CO/N=C(/C(=O)N[C@@H]1C(=O)N2C(C(=O)[O-])=C(C[n+]3cccc(-c4cc(N)[nH]n4)c3)CS[C@H]12)c1csc(N)n1
Second: CO/N=C(/C(=O)N[C@@H]1C(=O)N2C(C(=O)[O-])=C(C[n+]3cccc(-c4cc(C(N)=O)nn4CCO)c3)CS[C@H]12)c1csc(N)n1
The MIC of the first is 3.9-fold lower: 0.025 µg/mL (≈ 0.045 µM) for the first, 0.098 µg/mL (≈ 0.156 µM) for the second.

system: Streptococcus pyogenes; test: In vitro antimicrobial activity against Streptococcus pyogenes SG 511; format: functional; settings: not given

First: CO/N=C(/C(=O)N[C@@H]1C(=O)N2C(C(=O)[O-])=C(C[n+]3cccc(-c4cc(N)[nH]n4)c3)CS[C@H]12)c1csc(N)n1
Second: CO/N=C(/C(=O)N[C@@H]1C(=O)N2C(C(=O)[O-])=C(C[n+]3cccc(-c4cc(C(N)=O)nn4CCO)c3)CS[C@H]12)c1csc(N)n1
The MIC of the first is 4-fold lower: 0.391 µg/mL (≈ 0.704 µM) for the first, 1.56 µg/mL (≈ 2.49 µM) for the second.

system: Salmonella typhimurium; test: In vitro antimicrobial activity against Salmonella Typhimurium; format: functional, Salmonella enterica subsp. enterica serovar Typhimurium; settings: Salmonella enterica

First: CO/N=C(/C(=O)N[C@@H]1C(=O)N2C(C(=O)[O-])=C(C[n+]3cccc(-c4cc(N)[nH]n4)c3)CS[C@H]12)c1csc(N)n1
Second: CO/N=C(/C(=O)N[C@@H]1C(=O)N2C(C(=O)[O-])=C(C[n+]3cccc(-c4cc(C(N)=O)nn4CCO)c3)CS[C@H]12)c1csc(N)n1
The MIC of the first is 2-fold lower: 0.049 µg/mL (≈ 0.0882 µM) for the first, 0.098 µg/mL (≈ 0.156 µM) for the second.

system: Enterococcus faecium; test: In vitro antimicrobial activity against Streptococcus faecium MD 8b; format: functional; settings: not given

Going from `CO/N=C(/C(=O)N[C@@H]1C(=O)N2C(C(=O)[O-])=C(C[n+]3cccc(-c4cc(N)[nH]n4)c3)CS[C@H]12)c1csc(N)n1` to `CO/N=C(/C(=O)N[C@@H]1C(=O)N2C(C(=O)[O-])=C(C[n+]3cccc(-c4cc(C(N)=O)nn4CCO)c3)CS[C@H]12)c1csc(N)n1`, the MIC rises from 1.56 µg/mL (≈ 2.81 µM) to 6.25 µg/mL (≈ 9.96 µM) (4-fold).

system: Klebsiella oxytoca; test: In vitro antimicrobial activity against Klebsiella oxytoca 1082; format: functional; settings: not given

Compared with `CO/N=C(/C(=O)N[C@@H]1C(=O)N2C(C(=O)[O-])=C(C[n+]3cccc(-c4cc(N)[nH]n4)c3)CS[C@H]12)c1csc(N)n1`, `CO/N=C(/C(=O)N[C@@H]1C(=O)N2C(C(=O)[O-])=C(C[n+]3cccc(-c4cc(C(N)=O)nn4CCO)c3)CS[C@H]12)c1csc(N)n1` is 4-fold higher in MIC: 1.56 µg/mL (≈ 2.81 µM) for the first, 6.25 µg/mL (≈ 9.96 µM) for the second.

system: Enterobacter cloacae; test: In vitro antimicrobial activity against Enterobacter 1321 E; format: functional; settings: not given

Going from `CO/N=C(/C(=O)N[C@@H]1C(=O)N2C(C(=O)[O-])=C(C[n+]3cccc(-c4cc(N)[nH]n4)c3)CS[C@H]12)c1csc(N)n1` to `CO/N=C(/C(=O)N[C@@H]1C(=O)N2C(C(=O)[O-])=C(C[n+]3cccc(-c4cc(C(N)=O)nn4CCO)c3)CS[C@H]12)c1csc(N)n1`, the MIC rises from 0.013 µg/mL (≈ 0.0234 µM) to 0.049 µg/mL (≈ 0.0781 µM) (3.8-fold).
